Counter-ions that a name gives are not always drawn. Like-named read-outs stand apart in the source and are kept apart here.
What was measured:
in vitro [1] = details: human
HCoV-229E [2] = experiment: Twelve-step dose titration against HCoV-229E infection on Huh-7.5/F-Luc/Cas9 cells; type: cell-based, Homo sapiens sapiens; details: n = 3
SARS-CoV-2 [3] = details: cited from earlier work
in vitro [4] = details: human; remark: listed apart in the source
SARS-CoV-2 [5] = experiment: microbe, parasite or virus in culture; details: Severe acute respiratory syndrome coronavirus 2, Calu-3, 48 h
SARS-CoV-2 [6] = type: cell-based; details: dose range 0.15 µM to 10 µM, viral genome copies in apical washes and cellular lysates
HCoV-229E [7] = experiment: microbe, parasite or virus in culture; type: cell-based, Homo sapiens sapiens
Huh-7.5/F-Luc cells = details: for % cell viability at max. dose [5 µM]: at max. dose 5 µM
in vitro [8] = experiment: in vitro
SARS-CoV-2 [9] = details: for SI (CC50/IC50): CC50 from LDH assay / IC50 from qRT-PCR
[10] = tested on: primary human airway epithelial cells; details: dose range 0.15 µM to 10 µM, cellular lysates
SARS-CoV-2 [11] = details: for outcome against confirmation criteria of the SARS-CoV-2 counter-screen (<50% infected cell, >75% total cells): single dose of 5 µM; for total cell numbers / reduction of infected cell numbers: 5 µM, relative to DMSO; for total cell numbers: DAPI; for reduction of infected cell numbers: N protein immunofluorescence
HCoV-229E [12] = tested on: HCoV-229E; parameters: method as in PMID 34446714; details: Huh-7.5 cells; cited from earlier work
Calu-3 cells = details: LDH release, non-infected Calu-3 cells, 48 hours of drug treatment
Huh-7.5/F-Luc/Cas9 cells = details: twelve-step 1:3 dilutions, n = 3
[13] = Human coronavirus 229E, Huh7.5, twelve-step 1:3 dilutions
[14] = Huh-7.5 cells, dose series, maximum tested dose 5 µM
[15] = Calu-3 cells, immunofluorescence imaging
[16] = Human coronavirus 229E, Huh7.5, 48 h, read-out: IC50 against HCoV-229E

C=C(CC[C@]12O[C@H](C(=O)O)[C@@](O)(C(=O)O)[C@](C(=O)O)(O1)[C@H](OC(=O)/C=C/[C@@H](C)C[C@@H](C)CC)[C@H]2O)[C@@H](OC(C)=O)[C@H](C)Cc1ccccc1 [Zaragozic Acid A, Zaragozic acid A]
CC50 (in vitro [1]): > 100000 nM
IC50 (HCoV-229E [2]; [13]): 1930 nM

C=C(CC(=O)OCCCCCCCC)C(=O)O [4-OI, 4-octyl-itaconate]
anti-SARS-CoV-2 effects (SARS-CoV-2 [3]): anti-SARS-CoV-2 effects at high concentrations

COC(=O)/C=C/C(=O)OC [DMF, dimethyl fumarate]
anti-SARS-CoV-2 effects (SARS-CoV-2 [3]): anti-SARS-CoV-2 effects at high concentrations

CC/C(=C(/C#N)c1ccc(OCCN(CC)CC)cc1)c1ccc(Cl)cc1 [P-3622, Z-3-(4-chlorophenyl)-2-(4-(2-(diethylamino)ethoxy)phenyl)pent-2-enenitrile]
CC50 (in vitro [4]): 19500 nM
IC50 (SARS-CoV-2 [5]): 9350 nM
IC90 (SARS-CoV-2 [5]): 23400 nM
antiviral activity against SARS-CoV-2 in HAE cells (SARS-CoV-2 [6]): limited antiviral activity
IC50 (HCoV-229E [7]; Human coronavirus 229E, Huh7.5): 880 nM
CC50 (µM) (Huh-7.5/F-Luc cells; [14]): greater than maximum tested dose
viability (in vitro [8]; Anti-SARS-CoV-2 screening on Calu-3 cells: viability [% of control], Calu-3 cells): 97.7%
SI (CC50/IC50) (SARS-CoV-2 [9]; Calu-3 cells): 2.09
IC50 (HCoV-229E [2]; [13]): 359 nM
cytotoxicity in HAE cells, GAPDH mRNA [10]: well tolerated
Anti-SARS-CoV-2 screening on Calu-3 cells: intracellular SARS-CoV-2 infection measured via immunofluorescence imaging [% of control] (SARS-CoV-2 [11]; [15]): 97.91 % of control

Cc1ccccc1N=Nc1ccc(NC(=O)c2ccnn2C)c(C)c1 [CH223191]
effect on HCoV-229E infection (HCoV-229E [12]): decreased HCoV-229E and SARS-CoV-2 infection
effect on SARS-CoV-2 infection (SARS-CoV-2 [3]; Calu-3 and Vero cells): decreased HCoV-229E and SARS-CoV-2 infection

CCC(CC)COC(=O)[C@H](C)N[P@](=O)(OC[C@H]1O[C@@](C#N)(c2ccc3c(N)ncnn23)[C@H](O)[C@@H]1O)Oc1ccccc1 [Remdesivir]
IC50 (SARS-CoV-2 [5]): 180 nM
IC90 (SARS-CoV-2 [5]): 310 nM
antiviral activity against SARS-CoV-2 in HAE cells (SARS-CoV-2 [6]): dose dependently inhibited SARS-CoV-2 infection
IC50 (HCoV-229E [7]; Human coronavirus 229E, Huh7.5): 20 nM
IC50 (HCoV-229E [7]; [16]): 15.7 nM
CC50 (µM) (Huh-7.5/F-Luc cells; [14]): greater than maximum tested dose
SI (CC50/IC50) (SARS-CoV-2 [9]; Calu-3 cells): > 6.76
IC50 (HCoV-229E [2]; [13]): 0.83 nM
cytotoxicity in HAE cells, GAPDH mRNA [10]: without reducing GAPDH mRNA levels
Anti-SARS-CoV-2 screening on Calu-3 cells: intracellular SARS-CoV-2 infection measured via immunofluorescence imaging [% of control] (SARS-CoV-2 [11]; [15]): 1.09 % of control

CC1(C)CC[C@]2(C(=O)O)CC[C@]3(C)[C@H](C(=O)C=C4[C@@]5(C)C=C(C#N)C(=O)C(C)(C)[C@@H]5CC[C@]43C)[C@@H]2C1 [Bardoxolone, reference compound]
IC50 (SARS-CoV-2 [5]): 1890 nM
IC90 (SARS-CoV-2 [5]): 7030 nM
antiviral activity against SARS-CoV-2 in HAE cells (SARS-CoV-2 [6]): the reduction in viral genome copies could not be separated from an increase in cytotoxicity
IC50 (HCoV-229E [7]; Human coronavirus 229E, Huh7.5): 40 nM
IC50 (HCoV-229E [7]; [16]): 37 nM
viability at 48 h, 5 µM (in vitro [8]): 118%
SI (CC50/IC50) (SARS-CoV-2 [9]; Calu-3 cells): 3.90
Anti-SARS-CoV-2 screening on Calu-3 cells: intracellular SARS-CoV-2 infection measured via immunofluorescence imaging [% of control] (SARS-CoV-2 [11]; [15]): 95.03 % of control
outcome against confirmation criteria of the SARS-CoV-2 counter-screen (<50% infected cell, >75% total cells) (SARS-CoV-2 [11]; Calu-3 cells): did not meet the inclusion criteria

COc1ccc2[nH]c([S+]([O-])Cc3ncc(C)c(OC)c3C)nc2c1 (stereo not shown) [OMP, omeprazole]
inhibition of SARS-CoV-2 infection (SARS-CoV-2 [3]; Vero cells): inhibited SARS-CoV-2 infection of Vero cells

CN1CC[C@H](c2c(O)cc(O)c3c(=O)cc(-c4ccccc4Cl)oc23)[C@H](O)C1 [Flavopiridol]
CC50 (in vitro [4]): 460 nM
IC50 (SARS-CoV-2 [5]): 210 nM
IC90 (SARS-CoV-2 [5]): 520 nM
antiviral activity against SARS-CoV-2 in HAE cells (SARS-CoV-2 [6]): the reduction in viral genome copies could not be separated from an increase in cytotoxicity
SI (CC50/IC50) (SARS-CoV-2 [9]; Calu-3 cells): 2.21
total cell numbers (SARS-CoV-2 [11]; Calu-3 cells): ≥ 75%
reduction of infected cell numbers (SARS-CoV-2 [11]; Calu-3 cells): more than 50%
outcome against confirmation criteria of the SARS-CoV-2 counter-screen (<50% infected cell, >75% total cells) (SARS-CoV-2 [11]; Calu-3 cells): qualified as a hit in both imaging- and qRT-PCR-based assays

C#CCOc1ccc2c(c1)c(-c1ccc(C(C)C)cc1)nc(=O)n2Cc1ccc(Br)cc1 [AXT-914, reference compound]
CC50 (Calu-3 cells): > 40000 nM
antiviral activity against SARS-CoV-2 in HAE cells (SARS-CoV-2 [6]): dose dependently inhibited SARS-CoV-2 infection
IC50 (HCoV-229E [7]; HCoV 229E infection, dose series, max. dose 5 µM, read-out: IC50): 50 nM
CC50 (µM) (Huh-7.5/F-Luc cells; [14]): greater than maximum tested dose
% cell viability at max. dose [5 µM] (Huh-7.5/F-Luc cells): 127.46%
IC50 (SARS-CoV-2 [9]): 5650 nM
IC90 (SARS-CoV-2 [9]): 21800 nM
SI (CC50/IC50) (SARS-CoV-2 [9]; Calu-3 cells): > 7.08
cytotoxicity in HAE cells, GAPDH mRNA [10]: without reducing GAPDH mRNA levels
Anti-SARS-CoV-2 screening on Calu-3 cells: viability [% of control] (SARS-CoV-2 [11]; Calu-3 cells): 76.99 % of control
total cell numbers (SARS-CoV-2 [11]; Calu-3 cells): ≥ 75%
reduction of infected cell numbers (SARS-CoV-2 [11]; Calu-3 cells): more than 50%
Anti-SARS-CoV-2 screening on Calu-3 cells: intracellular SARS-CoV-2 infection measured via immunofluorescence imaging [% of control] (SARS-CoV-2 [11]; [15]): 20.74 % of control

CCc1cnn2c(NCc3ccc[n+]([O-])c3)cc(N3CCCC[C@H]3CCO)nc12 [Dinaciclib, reference compound]
inhibition of SARS-CoV-2 infection (SARS-CoV-2 [3]; Vero E6 and A549/ACE2 cells): nanomolar efficacy
CC50 (µM) (Huh-7.5/F-Luc cells): greater than maximum tested dose
viability at 48 h, 5 µM (in vitro [8]): 29.7%
virus load in the culture fluid (SARS-CoV-2 [9]; Calu-3 cells, screening dose 5 µM, 48 hours post-inoculation): reduced virus load
Anti-SARS-CoV-2 screening on Calu-3 cells: intracellular SARS-CoV-2 infection measured via immunofluorescence imaging [% of control] (SARS-CoV-2 [11]): 72.14 % of control
outcome against confirmation criteria of the SARS-CoV-2 counter-screen (<50% infected cell, >75% total cells) (SARS-CoV-2 [11]; Calu-3 cells): did not meet our stringent confirmation criteria

O=Cc1c2[nH]c3ccccc3c2cc2[nH]c3ccccc3c12 [FICZ, 6-formylindolo(3,2-b) carbazole]
inhibition of SARS-CoV-2 infection (SARS-CoV-2 [3]; Vero cells): inhibited SARS-CoV-2 infection of Vero cells

Cc1cc(-c2nc3cc(F)ccc3s2)ccc1NC(=O)[C@@H](N)CCCCN [Phortress, reference compound]
CC50 (Calu-3 cells): 19900 nM
antiviral activity against SARS-CoV-2 in HAE cells (SARS-CoV-2 [6]): dose dependently inhibited SARS-CoV-2 infection
IC50 (HCoV-229E [7]; Huh-7.5/F-Luc cells, 8-step dose series, 48 hours at 33°C, read-out: IC50 against HCoV-229E): 230 nM
CC50 (µM) (Huh-7.5/F-Luc cells; [14]): greater than maximum tested dose
% cell viability at max. dose [5 µM] (Huh-7.5/F-Luc cells): 252.77%
SI (CC50/IC50) (SARS-CoV-2 [9]; Calu-3 cells): 1.49
IC90 (SARS-CoV-2 [9]; Calu-3 cells, viral genome copies in supernatant 48 hours post-infection): 164000 nM
IC50 (SARS-CoV-2 [9]; Calu-3 cells, viral genome copies in supernatant 48 hours post-infection, n = 3): 13300 nM
cytotoxicity in HAE cells, GAPDH mRNA [10]: without reducing GAPDH mRNA levels
Anti-SARS-CoV-2 screening on Calu-3 cells: viability [% of control] (SARS-CoV-2 [11]; Calu-3 cells): 106.32 % of control
total cell numbers (SARS-CoV-2 [11]; Calu-3 cells): ≥ 75%
reduction of infected cell numbers (SARS-CoV-2 [11]; Calu-3 cells): more than 50%
Anti-SARS-CoV-2 screening on Calu-3 cells: intracellular SARS-CoV-2 infection measured via immunofluorescence imaging [% of control] (SARS-CoV-2 [11]; [15]): 46.05 % of control

F/C(COc1ccc2c(c1)[nH]c1ccccc12)=C1/CN2CCC1CC2 [YM-53601]
CC50 (Huh-7.5/F-Luc/Cas9 cells): 28100 nM
IC50 (HCoV-229E [2]; twelve-step 1:3 dilutions): 1610 nM

CC1(C)CC[C@]2(NC(=O)C(C)(F)F)CC[C@]3(C)[C@H](C(=O)C=C4[C@@]5(C)C=C(C#N)C(=O)C(C)(C)[C@@H]5CC[C@]43C)[C@@H]2C1 [Omaveloxolone]
CC50 (in vitro [4]): > 1250 nM
IC50 (SARS-CoV-2 [5]): 140 nM
IC90 (SARS-CoV-2 [5]): 2410 nM
antiviral activity against SARS-CoV-2 in HAE cells (SARS-CoV-2 [6]): inhibited SARS-CoV-2 infection at 1.25 µM and 2.5 µM
IC50 (HCoV-229E [7]; [16]): 78 nM
SI (CC50/IC50) (SARS-CoV-2 [9]; Calu-3 cells): > 8.66
cytotoxicity in HAE cells, GAPDH mRNA [10]: maintaining high cell viability
outcome against confirmation criteria of the SARS-CoV-2 counter-screen (<50% infected cell, >75% total cells) (SARS-CoV-2 [11]; Calu-3 cells): did not meet the inclusion criteria
